Key:
Type in all cases: in vivo
Ach = assay: Konzett data, Ach
5-HT = assay: Konzett data, 5-HT
Hist = assay: Konzett data, Hist

SMILES	ED50 (Ach) [mg/kg]	5-HT (ED50) (5-HT) [mg/kg]	Hist (ED50) (Hist) [mg/kg]	Ach (ED50) (Ach) [mg/kg]
C=CC(O)(C/C=C/[C@H]1[C@H](O)CC(=O)[C@@H]1C/C=C\CCCC(O)CO)CCCC (relative stereo) [11α,16-Dihydroxy-1-hydroxymethyl-16-vinyl-9-oxo-5-cis-13-trans-prostadien-1-ol]	11.8			
CCCCC(C)(O)C/C=C/[C@H]1[C@H](O)CC(=O)[C@@H]1C/C=C\CCCC(O)CO (relative stereo) [11α,16-Dihydroxy-1-hydroxymethyl-16-methyl-9-oxo-5-cis-13-trans-prostadien-1-ol]	331			
CCCCCC(C)(O)/C=C/C1C(O)CC(=O)C1C/C=C\CCCCO (racemic) [dl-1,11 ,15-trihydroxymethyl-9-oxo-15-methyl-5-cis-13-trans prostadiene]		8.3	0.75	4.3
CCCCC(C)(O)C/C=C/[C@H]1[C@H](O)CC(=O)[C@@H]1CCCCCCC(O)CO (relative stereo) [11α,16-Dihydroxy-1-hydroxymethyl-16-methyl-,9-oxo-13-trans-prosten-1-ol]	75.9			
C=CC(O)(C/C=C/[C@H]1[C@H](O)CC(=O)[C@@H]1CCCCCCC(O)CO)CCCC (relative stereo) [3β-(4-Butylhydroxy-4-hydroxy-1,5-hexadienyl)-2α-(7,8-dihydroxyoctyl)-4α-hydroxycyclopentanone]	20.1			
